Laboratory results as given in US12662489B2 (Sitryx Therapeutics Limited, priority 2023, dated 2026).

Assays:
[1] = target: T1, MTHFD2 recombinant human enzyme (Homo sapiens, UniProt P13995); assay: MTHFD2 inhibition assay (NAD(P)H-Glo luminescence); conditions: for MTHFD1/MTHFD2 IC50 ratio: selectivity of MTHFD2 inhibition over MTHFD1, band
T1 sequence (P13995 36-350): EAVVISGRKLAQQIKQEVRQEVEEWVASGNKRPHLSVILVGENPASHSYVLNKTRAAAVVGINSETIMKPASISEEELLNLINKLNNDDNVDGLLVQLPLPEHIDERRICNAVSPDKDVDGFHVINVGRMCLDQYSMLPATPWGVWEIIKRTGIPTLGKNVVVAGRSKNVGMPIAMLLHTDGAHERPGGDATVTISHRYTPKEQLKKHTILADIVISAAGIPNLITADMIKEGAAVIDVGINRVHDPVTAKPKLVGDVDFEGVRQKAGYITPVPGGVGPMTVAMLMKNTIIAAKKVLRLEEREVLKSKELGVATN

[2] = target: T2, MTHFD1 recombinant human enzyme (Homo sapiens, UniProt P11586); assay: MTHFD1 inhibition assay (NAD(P)H-Glo luminescence); conditions: MTHFD1 IC50, recombinant human enzyme 200 nM, NADP, band
T2 sequence (P11586 2-291 limits assumed): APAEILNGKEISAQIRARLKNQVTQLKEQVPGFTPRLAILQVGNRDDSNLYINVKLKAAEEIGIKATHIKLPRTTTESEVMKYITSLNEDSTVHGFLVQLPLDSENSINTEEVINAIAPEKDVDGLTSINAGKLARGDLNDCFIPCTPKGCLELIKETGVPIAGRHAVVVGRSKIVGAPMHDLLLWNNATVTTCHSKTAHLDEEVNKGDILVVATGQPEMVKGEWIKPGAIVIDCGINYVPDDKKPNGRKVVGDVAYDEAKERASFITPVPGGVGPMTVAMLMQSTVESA

human CD4+ T cells = assay: Human CD4+ T-cell proliferation assay (CFSE, CD3/28 beads); conditions: read-out: Proliferation IC50
Experimental: Cells were incubated at room temperature for 8 minutes in a rotator in the dark. 13 mL cRPMI was added to each tube and cells were centrifuged at 500×g for 4 minutes at room temperature before pellets were resuspended in 10 mL cRPMI. Cells were counted using the Auto2000 Cellometer and AO/PI viability stain and concentration adjusted to 0.6×10^6 cells/mL in cRPMI. […] Control wells were included for flow cytometry and edge wells were filled with 200 μL 1×dPBS. Cells were incubated at 37° C., 5% CO2 for 2 days before compound treatment. […] Cells were incubated at 37° C., 5% CO2 for a further 2 days prior to flow staining and supernatant harvest.
On the final day plates were centrifuged at 500×g for 4 minutes at room temperature. 125 μL of supernatants were transferred to a V bottom 96 well polystyrene plate and stored at −80° C. Plates were gently vortexed to disrupt the cell pellets before 125 μL 1×PBS was added to each well. Plates were centrifuged at 500×g for 4 minutes at room temperature and supernatants removed from the plates by aspirating. Plates were gently vortexed and 30 μL of live/dead stain (Invitrogen, L34975) in 1×dPBS was added and incubated for 15 minutes in the dark at 4° C. […] 100 μL of flow cytometry buffer was added and plates were centrifuged at 500×g for 4 minutes before supernatants were aspirated from the plates. Wells were resuspended in 200 μL flow cytometry buffer and plates stored at 4° C. before being run on the flow cytometer.
Data was analysed using FlowJo and the compensation matrix applied to all samples. The gates were set using unstained and unstimulated samples.

Structure (SMILES) | IC50 [1] | MTHFD1/MTHFD2 IC50 ratio [1] | IC50 [2] | IC50 (human CD4+ T cells)
CCOc1c(C(=O)N2CCc3c(c(=O)oc4c(C)c(N5CCN(C)[C@@H](COC)C5)cc(C)c34)C2)ccc(C(=O)NS(=O)(=O)N2CCCC2)c1F [Example 223, (R)-3-ethoxy-2-fluoro-4-(8-(3-(methoxymethyl)-4-methylpiperazin-1-yl)-7,10-dimethyl-5-oxo-1,3,4,5-tetrahydro-2H-chromeno[3,4-c]pyridine-3-carbonyl)-N-(pyrrolidin-1-ylsulfonyl)benzamide] | 0.001 to 0.01 µM | F (<3) | 0.001 to 0.01 µM | 0.001 to 0.01 µM
COC[C@H]1CN(c2cc(C)c3c4c(c(=O)oc3c2C)CN(C(=O)c2ccc(C(=O)NS(=O)(=O)N3C[C@H]5CCC[C@H]5C3)cc2)CC4)CCN1C [Example 210, N-(((3aR,6a S)-hexahydrocyclopenta[c]pyrrol-2(1H)-yl)sulfonyl)-4-(8-((R)-3-(methoxymethyl)-4-methylpiperazin-1-yl)-7,10-dimethyl-5-oxo-1,3,4,5-tetrahydro-2H-chromeno[3,4-c]pyridine-3-carbonyl)benzamide] | 0.01 to 0.1 µM | J (>30) | 1 to 5 µM | > 5 µM
COC[C@H]1CN(c2cc(C)c3c4c(c(=O)oc3c2C)CN(C(=O)c2cc(OC)c(C(=O)NS(=O)(=O)N3CCCC3)cc2F)CC4)CCN1C [Example 224, (R)-5-fluoro-2-methoxy-4-(8-(3-(methoxymethyl)-4-methylpiperazin-1-yl)-7,10-dimethyl-5-oxo-1,3,4,5-tetrahydro-2H-chromeno[3,4-c]pyridine-3-carbonyl)-N-(pyrrolidin-1-ylsulfonyl)benzamide] | 0.001 to 0.01 µM | J (>30) | 0.1 to 1 µM | 0.03 to 0.1 µM
CCOc1cc(C(=O)N2CCc3c(c(=O)oc4c(C)c(N5CCN(C)[C@@H](COC)C5)cc(C)c34)C2)c(F)cc1C(=O)NS(=O)(=O)N1C2CCC1CC2 [Example 218, (R)-N-((7-azabicyclo[2.2.1]heptan-7-yl)sulfonyl)-2-ethoxy-5-fluoro-4-(8-(3-(methoxymethyl)-4-methylpiperazin-1-yl)-7,10-dimethyl-5-oxo-1,3,4,5-tetrahydro-2H-chromeno[3,4-c]pyridine-3-carbonyl)benzamide] | 0.01 to 0.1 µM | H (>9.0 to 30) | 0.1 to 1 µM | 0.03 to 0.1 µM
COC[C@H]1CN(c2cc(C)c3c4c(c(=O)oc3c2C)CN(C(=O)c2ccc(C(=O)NS(=O)(=O)N3C5CCC3CC5)c(OC)c2F)CC4)CCN1C [Example 157, (R)-N-((7-azabicyclo[2.2.1]heptan-7-yl)sulfonyl)-3-fluoro-2-methoxy-4-(8-(3-(methoxymethyl)-4-methylpiperazin-1-yl)-7,10-dimethyl-5-oxo-1,3,4,5-tetrahydro-2H-chromeno[3,4-c]pyridine-3-carbonyl)benzamide] | 0.01 to 0.1 µM | H (>9.0 to 30) | 0.1 to 1 µM | 0.03 to 0.1 µM
CCc1cc(N2CCN(C)[C@@H](COC)C2)c(C)c2oc(=O)c3c(c12)CCN(C(=O)c1cc(N(C)C)c(C(=O)NS(=O)(=O)N2CCCC2)cc1F)C3 [Example 245, (R)-2-(dimethylamino)-4-(10-ethyl-8-(3-(methoxymethyl)-4-methylpiperazin-1-yl)-7-methyl-5-oxo-1,3,4,5-tetrahydro-2H-chromeno[3,4-c]pyridine-3-carbonyl)-5-fluoro-N-(pyrrolidin-1-ylsulfonyl)benzamide] | 0.001 to 0.01 µM | J (>30) | 1 to 5 µM | 0.03 to 0.1 µM
COC[C@H]1CN(c2cc(F)c3c4c(c(=O)oc3c2C)CN(C(=O)c2cc(N(C)C)c(C(=O)NS(=O)(=O)N3C5CCC3CC5)cc2F)CC4)CCN1C [Example 304, (R)-N-((7-azabicyclo[2.2.1]heptan-7-yl)sulfonyl)-2-(dimethylamino)-5-fluoro-4-(10-fluoro-8-(3-(methoxymethyl)-4-methylpiperazin-1-yl)-7-methyl-5-oxo-1,3,4,5-tetrahydro-2H-chromeno[3,4-c]pyridine-3-carbonyl)benzamide] | 0.01 to 0.1 µM |  | 1 to 5 µM | 0.01 to 0.03 µM
COC[C@H]1CN(c2cc(C)c3c4c(c(=O)oc3c2C)CN(C(=O)c2cc(OC3CC3)c(C(=O)NS(=O)(=O)N3C5CCC3CC5)cc2F)CC4)CCN1C [Example 331, (R)-N-((7-azabicyclo[2.2.1]heptan-7-yl)sulfonyl)-2-cyclopropoxy-5-fluoro-4-(8-(3-(methoxymethyl)-4-methylpiperazin-1-yl)-7,10-dimethyl-5-oxo-1,3,4,5-tetrahydro-2H-chromeno[3,4-c]pyridine-3-carbonyl)benzamide] | 0.001 to 0.01 µM | J (>30) | 0.1 to 1 µM | 0.03 to 0.1 µM
CCOc1cc(C(=O)N2CCc3c(c(=O)oc4c(C)c(N5CCN(C)[C@@H](COC)C5)cc(C)c34)C2)c(F)cc1C(=O)NS(=O)(=O)N1C2CCC1COC2 [Example 221, N-((3-oxa-8-azabicyclo[3.2.1]octan-8-yl)sulfonyl)-2-ethoxy-5-fluoro-4-(8-((R)-3-(methoxymethyl)-4-methylpiperazin-1-yl)-7,10-dimethyl-5-oxo-1,3,4,5-tetrahydro-2H-chromeno[3,4-c]pyridine-3-carbonyl)benzamide] | 0.01 to 0.1 µM | H (>9.0 to 30) | 0.1 to 1 µM | 0.03 to 0.1 µM
COC[C@H]1CN(c2cc(C)c3c4c(c(=O)oc3c2C)CN(C(=O)c2cc(OC3CC3)c(C(=O)NS(=O)(=O)N3CCCC3)cc2F)CC4)CCN1C [Example 263, (R)-2-cyclopropoxy-5-fluoro-4-(8-(3-(methoxymethyl)-4-methylpiperazin-1-yl)-7,10-dimethyl-5-oxo-1,3,4,5-tetrahydro-2H-chromeno[3,4-c]pyridine-3-carbonyl)-N-(pyrrolidin-1-ylsulfonyl)benzamide] | 0.001 to 0.01 µM | J (>30) | 0.01 to 0.1 µM | 0.01 to 0.03 µM
COC[C@H]1CN(c2cc(C)c3c4c(c(=O)oc3c2C)CN(C(=O)c2cc(N(C)C)c(C(=O)NS(=O)(=O)C3(C)CC3)cc2Cl)CC4)CCN1C [Example 151, (R)-5-chloro-2-(dimethylamino)-4-(8-(3-(methoxymethyl)-4-methylpiperazin-1-yl)-7,10-dimethyl-5-oxo-1,3,4,5-tetrahydro-2H-chromeno[3,4-c]pyridine-3-carbonyl)-N-((1-methylcyclopropyl)sulfonyl)benzamide] | 0.01 to 0.1 µM | J (>30) | 1 to 5 µM | 0.1 to 1 µM
COC[C@H]1CN(c2cc(C)c3c4c(c(=O)oc3c2C)CN(C(=O)c2cc(OC3CCCC3)c(C(=O)NS(=O)(=O)N3CCCC3)c(C(F)(F)F)c2)CC4)CCN1C [Example 129, (R)-2-(cyclopentyloxy)-4-(8-(3-(methoxymethyl)-4-methylpiperazin-1-yl)-7,10-dimethyl-5-oxo-1,3,4,5-tetrahydro-2H-chromeno[3,4-c]pyridine-3-carbonyl)-N-(pyrrolidin-1-ylsulfonyl)-6-(trifluoromethyl)benzamide] | 0.01 to 0.1 µM | J (>30) | 1 to 5 µM | 0.1 to 1 µM
COC[C@H]1CN(c2cc(C)c3c4c(c(=O)oc3c2C)CN(C(=O)c2ccc(C(=O)NS(=O)(=O)C3(C)CC3)c(N(C)C)c2F)CC4)CCN1C [Example 136, (R)-2-(dimethylamino)-3-fluoro-4-(8-(3-(methoxymethyl)-4-methylpiperazin-1-yl)-7,10-dimethyl-5-oxo-1,3,4,5-tetrahydro-2H-chromeno[3,4-c]pyridine-3-carbonyl)-N-((1-methylcyclopropyl)sulfonyl)benzamide] | 0.01 to 0.1 µM | H (>9.0 to 30) | 0.1 to 1 µM | 0.03 to 0.1 µM
[2H]C([2H])([2H])Oc1cc(C(=O)N2CCc3c(c(=O)oc4c(C)c(N5CCN(C)[C@@H](COC)C5)cc(Cl)c34)C2)c(F)cc1C(=O)NS(=O)(=O)N1CCCC1 [Example 246, (R)-4-(10-chloro-8-(3-(methoxymethyl)-4-methylpiperazin-1-yl)-7-methyl-5-oxo-1,3,4,5-tetrahydro-2H-chromeno[3,4-c]pyridine-3-carbonyl)-5-fluoro-2-(methoxy-d3)-N-(pyrrolidin-1-ylsulfonyl)benzamide] | 0.001 to 0.01 µM | J (>30) | 0.1 to 1 µM | 0.1 to 1 µM
COC[C@H]1CN(c2cc(C)c3c4c(c(=O)oc3c2C)CN(C(=O)c2cc(N(C)C)c(C(=O)NS(=O)(=O)N3CC5(CCC5)C3)cc2F)CC4)CCN1C [Example 253, (R)-N-((2-azaspiro[3.3]heptan-2-yl)sulfonyl)-2-(dimethylamino)-5-fluoro-4-(8-(3-(methoxymethyl)-4-methylpiperazin-1-yl)-7,10-dimethyl-5-oxo-1,3,4,5-tetrahydro-2H-chromeno[3,4-c]pyridine-3-carbonyl)benzamide] | 0.001 to 0.01 µM | J (>30) | 0.1 to 1 µM | 0.01 to 0.03 µM
